Source: ChEMBL document CHEMBL2311284, “A novel series of N-(azetidin-3-yl)-2-(heteroarylamino)acetamide CCR2 antagonists” (Bioorg Med Chem Lett, 2013)

Columns and labels:
[1] = AUClast in rat at 2 mg/kg, iv and 10 mg/kg, po; settings: plasma
[2] = Clearance in rat at 2 mg/kg, iv and 10 mg/kg, po; settings: in vivo
[3] = Volume of distribution at steady state in rat at 2 mg/kg, iv and 10 mg/kg, po; settings: in vivo, read-out: Vdss
[4] = Oral bioavailability in rat at 10 mg/kg; assay type: ADME, organism-based; settings: in vivo

AUC(0-t) [1] | clearance [2] | Vd [3] | bioavailability [4] | SMILES
6 ng·h/mL | 148 mL/min/kg | 13 L/kg | 0.5% | N#Cc1cc(NCC(=O)NC2CN([C@H]3CC[C@@](O)(c4cncs4)CC3)C2)c2cc(C(F)(F)F)ccc2n1
10.6 ng·h/mL | 89 mL/min/kg | 8.5 L/kg | 0.3% | O=C(CNc1ncnc2ccc(C(F)(F)F)cc12)NC1CN([C@H]2CC[C@@](O)(c3cncs3)CC2)C1
